One data set deals with Mac1. The conditions noted are these: ref Ni et al., 2021; cited from earlier work.
The target in data set [1] is T1, SARS-CoV-2 Mac1 (Severe acute respiratory syndrome coronavirus 2, UniProt P0DTD1). The data set is described as follows: Differential scanning fluorimetry. It counts as binding. Background: DSF heats the sample and reads unfolding from a dye or from intrinsic fluorescence.
Data set [2] addresses T1, SARS-CoV-2 Mac1. The conditions noted are these: read-out: IC50 Mac1 mono-ARH activity; ref Dasovich et al., 2022; cited from earlier work.
Another data set deals with mammalian cells. The conditions noted are these: cited from earlier work.
The next data set concerns the target MERS-CoV Mac1 (Middle East respiratory syndrome-related coronavirus, UniProt K9N7C7). The format is binding. The conditions noted are these: read-out: IC50 AS MERS.
A further data set concerns the target SARS-CoV Mac1 (Severe acute respiratory syndrome coronavirus, UniProt P0C6X7). The format is binding. The conditions noted are these: read-out: AS assay IC50 SARS-CoV.

Molecules are shown by their SMILES.

Sequence of MERS-CoV Mac1 (K9N7C7 1110-1276 limits assumed): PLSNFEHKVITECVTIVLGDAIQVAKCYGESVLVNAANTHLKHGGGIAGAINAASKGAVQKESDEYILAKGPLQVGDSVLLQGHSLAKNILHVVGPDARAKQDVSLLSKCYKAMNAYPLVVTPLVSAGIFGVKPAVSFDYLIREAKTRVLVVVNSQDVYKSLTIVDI

Turning to `N#C[C@@]1(c2ccc3c(N)ncnn23)O[C@H](CO)[C@@H](O)[C@H]1O` [GS-441524], the “binding to Mac1 (in words)” value in the data set on Mac1 is “bound to Mac1”. For the molecule `Nc1ncnc2c1ncn2[C@@H]1O[C@H](COP(=O)(O)OP(=O)(O)OP(=O)(O)O)[C@@H](O)[C@H]1O` [ATP], the “thermal shift of Mac1 in DSF (in words)” value on SARS-CoV-2 Mac1 [1] is listed as “no effect”. As for `Cc1nc(Nc2ncc(C(=O)Nc3c(C)cccc3Cl)s2)cc(N2CCN(CCO)CC2)n1` [Dasatinib], the half-inhibitory concentration (IC50) (in general, the midpoint of a concentration-inhibition curve) at SARS-CoV-2 Mac1 [2] was approximately 50000 nM. Further, the “toxicity to mammalian cells (in words)” value with mammalian cells is “toxic to mammalian cells”. Regarding `Nc1ncnc2c1ncn2[C@@H]1O[C@H](COP(=O)(O)OP(=O)(O)OC[C@H]2OC(O)[C@H](O)[C@@H]2O)[C@@H](O)[C@H]1O` (stereo partly drawn) [ADP-ribose], the IC50 at MERS-CoV Mac1 worked out at 1250 ± 230 nM; on SARS-CoV Mac1, 240 nM.
